Values joined by “and” are separate entries in the source; they are usually repeats but may differ in a detail not shown here. Equal entries are not always repeated. Where two headings read alike, the source gives them in different places.
How the values were obtained:
[1] = Pharmacokinetic profile of IUdR (100 mg/kg) with and without Tipiracil in rats following single oral administration; format: in vivo, male Sprague-Dawley rats; details: single oral dose, Example 1, sub-heading prints PO-20 (Compound A) alone or + 7.9 (Compound B) mg/kg, individual animals
Method: (§1) The purpose of this study was to determine the pharmacokinetics parameters of IUdR in male Sprague-Dawley rats following single oral (PO) administration the IUdR (i.e., Compound A) and Tipiracil (i.e., Compound B).
A control formulation was prepared where Compound A was dissolved in 5% DMSO+95% PBS to yield a final concentration of 10 mg/mL for oral administration. The prepared formulation was white suspension (pH˜7).
A second formulation was prepared where Compound A and Compound B were dissolved in 5% DMSO+95% PBS to yield a final concentration of 10 mg/mL (Compound A) and 0.79 mg/mL (Compound B) for oral administration. The prepared formulation was white suspension (pH˜7).
(§2) Animal Acquisition and Assignment to Study. A total of 8 male experimental Sprague-Dawley Rats were transferred from stock colony, and 6 animals were placed on study.
(§3) Dose Administration. The test article was administered via a single oral administration.
(§4) Sample Collection and Bioanalysis. Blood samples (approximately 200 μL/sample) were collected via jugular vein at Pre-dose and Post-dose (5 min, 15 min, 30 min, 1 h, 2 h, 4 h, 6 h, 8 h and 24 h). Blood samples were placed into tubes containing K2EDTA and centrifuged conditions at 8000 rpm for 6 minutes at 2-8° C. to separate plasma from the samples. Following centrifugation, the resulting plasma were transferred to clean tubes and stored frozen at −80° C. pending bioanalysis.
Pharmacokinetic Analysis. The PK analysis and interpretation of the results were conducted by Medicilon Preclinical Research (Shanghai) LLC. A non-compartmental module of WinNonlin® Professional was used to calculate parameters. Any BLQs (LLOQ=10.0 ng/mL for Compound A) were omitted when calculate the PK parameters.
(§5) Clinical Observations. No abnormal observations were noted.

[2] = test system: DNA of tumors and adjacent normal tissue; details: small series of patients with head and neck cancers or liver metastases from colorectal cancer; cited from earlier work
[3] = test system: cells; details: as compared to cells without the defective DNA; cited from earlier work
[4] = Pharmacokinetic profile of IUdR (20 mg/kg) with and without Tipiracil in rats following single oral administration; format: in vivo, male Sprague-Dawley rats; details: for Plasma Concentration of Compound A / concentration at 0.083 hr / concentration at 0.25 hr / concentration at 0.5 hr / concentration at 1 hr: PO-20 mg/kg Compound A alone or + 7.9 mg/kg Compound B; for concentration at 0.083 hr / concentration at 0.25 hr / concentration at 0.5 hr / concentration at 1 hr: oral; for AUC(0-t) / Cmax: po
Method: as §1
A control formulation was prepared where Compound A was dissolved in 5% DMSO+95% PBS to yield a final concentration of 2 mg/mL for oral administration. The prepared formulation was colorless clear solution (pH˜8).
A second formulation was prepared where Compound A and Compound B were dissolved in 5% DMSO+95% PBS to yield a final concentration of 2 mg/mL (Compound A) and 0.79 mg/mL (Compound B) for oral administration. The prepared formulation was colorless clear solution (pH˜7).
as §2, §3, §4
Pharmacokinetic Analysis. The PK analysis and interpretation of the results were conducted by Medicilon Preclinical Research (Shanghai) LLC. A non-compartmental module of WinNonlin® Professional was used to calculate parameters. Any BLQs (LLOQ=5.0 ng/mL for Compound A) were omitted when calculate the PK parameters.
as §5

[5] = single oral dose, PO-20 (Compound A) alone or + 7.9 (Compound B) mg/kg, individual animals

O=c1[nH]c(=O)n([C@H]2C[C@H](O)[C@@H](CO)O2)cc1I [Compound A, 5-iodo-2′-deoxyuridine]
AUC(0-t) of Compound A [1]: 2214.79 ng·h/mL and 2609.22 ng·h/mL
Cmax of Compound A [1]: 773.62 ng/mL and 755.39 ng/mL
Tmax of Compound A [1]: 120 min
% IUdR-DNA incorporation in adjacent normal tissue [2]: less than 1%
% IUdR-DNA incorporation in tumors [2]: ≤ 5%
increase in susceptibility of cells to the lethal effects of RT [3]: two-three fold
Plasma Concentration of Compound A ([4]; 0.083 hr, individual animals, LLOQ 5 ng/mL): 25.16 ng/mL and 16.04 ng/mL
Plasma Concentration of Compound A ([4]; 0.25 hr, individual animals, LLOQ 5 ng/mL): 54.67 ng/mL and 56.48 ng/mL
Plasma Concentration of Compound A ([4]; 0.5 hr, individual animals, LLOQ 5 ng/mL): 63.23 ng/mL and 57.34 ng/mL
Plasma Concentration of Compound A ([4]; 1 hr, individual animals, LLOQ 5 ng/mL): 19.19 ng/mL and 21.93 ng/mL
Plasma Concentration of Compound A ([4]; 2 hr, individual animals, LLOQ 5 ng/mL): BLQ
Plasma Concentration of Compound A ([4]; 4 hr, individual animals, LLOQ 5 ng/mL): BLQ
Plasma Concentration of Compound A ([4]; 6 hr, individual animals, LLOQ 5 ng/mL): BLQ
Plasma Concentration of Compound A ([4]; 8 hr, individual animals, LLOQ 5 ng/mL): BLQ
Plasma Concentration of Compound A ([4]; 24 hr, individual animals, LLOQ 5 ng/mL): BLQ
Tmax ([4]; male, Sprague-Dawley, rat, plasma, 20 mg/kg, single oral dose, PO-20 (Compound A) alone or + 7.9 (Compound B) mg/kg, individual animals): 30 min
concentration at 0.083 hr ([4]; male, Sprague-Dawley, rat, plasma, 20 mg/kg, 0.083 hr, group mean, read-out: Plasma Concentration of Compound A, Mean): 21.9 ng/mL
concentration at 0.083 hr ([4]; male, Sprague-Dawley, rat, plasma, 20 mg/kg, 0.083 hr, individual animals, LLOQ 5 ng/mL, read-out: Plasma Concentration of Compound A): 24.5 ng/mL
concentration at 0.25 hr ([4]; male, Sprague-Dawley, rat, plasma, 20 mg/kg, 0.25 hr, group mean, read-out: Plasma Concentration of Compound A, Mean): 49.2 ng/mL
concentration at 0.25 hr ([4]; male, Sprague-Dawley, rat, plasma, 20 mg/kg, 0.25 hr, individual animals, LLOQ 5 ng/mL, read-out: Plasma Concentration of Compound A): 36.5 ng/mL
concentration at 0.5 hr ([4]; male, Sprague-Dawley, rat, plasma, 20 mg/kg, 0.5 hr, group mean, read-out: Plasma Concentration of Compound A, Mean): 57.7 ng/mL
concentration at 0.5 hr ([4]; male, Sprague-Dawley, rat, plasma, 20 mg/kg, 0.5 hr, individual animals, LLOQ 5 ng/mL, read-out: Plasma Concentration of Compound A): 52.5 ng/mL
concentration at 1 hr ([4]; male, Sprague-Dawley, rat, plasma, 20 mg/kg, 1 hr, group mean, read-out: Plasma Concentration of Compound A, Mean): 22.8 ng/mL
concentration at 1 hr ([4]; male, Sprague-Dawley, rat, plasma, 20 mg/kg, 1 hr, individual animals, LLOQ 5 ng/mL, read-out: Plasma Concentration of Compound A): 27.2 ng/mL
AUC(0-t) ([4]; male, Sprague-Dawley, rat, plasma, 20 mg/kg, oral administration, Example 2 (20 mg/kg IUdR, ± 7.9 mg/kg Tipiracil), comparison table, mean, read-out: AUC(0-t) of Compound A): 40.3 ng·h/mL
Cmax ([4]; male, Sprague-Dawley, rat, plasma, 20 mg/kg, oral administration, Example 2 (20 mg/kg IUdR, ± 7.9 mg/kg Tipiracil), comparison table, mean, read-out: Cmax of Compound A): 57.7 ng/mL
AUC(0-t) ([4]; male, Sprague-Dawley, rat, plasma, 20 mg/kg, single oral dose, PO-20 (Compound A) alone or + 7.9 (Compound B) mg/kg, group mean, read-out: AUC(0-t) of Compound A, Mean): 40.3 ng·h/mL
Cmax ([4]; male, Sprague-Dawley, rat, plasma, 20 mg/kg, single oral dose, PO-20 (Compound A) alone or + 7.9 (Compound B) mg/kg, group mean, read-out: Cmax of Compound A, Mean): 57.7 ng/mL
AUC(0-t) ([4]; male, Sprague-Dawley, rat, plasma, 20 mg/kg, single oral dose, PO-20 (Compound A) alone or + 7.9 (Compound B) mg/kg, individual animals, read-out: AUC(0-t) of Compound A): 40.8 ng·h/mL
Cmax ([4]; male, Sprague-Dawley, rat, plasma, 20 mg/kg, single oral dose, PO-20 (Compound A) alone or + 7.9 (Compound B) mg/kg, individual animals, read-out: Cmax of Compound A): 57.3 ng/mL
AUC(0-t) of Compound A [4, 5]: 37.15 ng·h/mL and 43.05 ng·h/mL
Cmax of Compound A [4, 5]: 52.45 ng/mL and 63.23 ng/mL

— patent US12357650B2, “Methods and compositions for cancer therapies that include delivery of halogenated thymidines and thymidine phosphorlylase inhibitors in combination with radiation” (Shuttle Pharmaceuticals, Inc., priority 2017, dated 2025)
